These results are taken from article PMC9363231, “High‐resolution analysis of individual spike peptide‐specific CD4 ^+ T‐cell responses in vaccine recipients and COVID‐19 patients” (Clinical & Translational Immunology, 2022).

In one test the target is HLA-DRB1*07:01 (Homo sapiens, UniProt P01903+P01911, A100R/A102G/A103Q/D57E/D86V/E43K/F76Y/K127E/L162R/M171V/P40G/Q125H/Q99D/R33Q/R42Y/R54Q/S133A/S66F/T210M/V115G/Y107V/Y59L/Y89S). Kind of test: biochemical. It is filed as binding.
The target in a further test is HLA-DRB1*12:01 (Homo sapiens, UniProt P01903+P01911, A100R/A169T/D57E/D86V/F55L/H45Y/K41T/L162R/M171V/P40S/Q125H/Q178H/Q39Y/Q99D/R42G/S66L/T262R/V114A/V67L/W38E/Y59H/Y61H/Y89S). Kind of test: biochemical. It is filed as binding.
The target of another test is HLA-DRB1*04:01 (Homo sapiens, UniProt P01903+P01911, A100K/A169T/F76Y/I96L/K127E/L162R/M171V/N62H/P40V/Q125Y/R42H/S133A/S149N/S66Y/V115G/V209L/W38E). Kind of test: biochemical. It is filed as binding.
The target in another test is HLA-DRB1*13:02 (Homo sapiens, UniProt P01903+P01911, A100E/A169T/K41T/L162R/M171V/P40S/Q125H/Q178H/Q39Y/Q99D/R42S/S66N/T262R/V115G/W38E/Y61H). Kind of test: biochemical. It is filed as binding.
HLA-DRB1*13:02, sequence (P01903 26-254 limits assumed, other chains not shown): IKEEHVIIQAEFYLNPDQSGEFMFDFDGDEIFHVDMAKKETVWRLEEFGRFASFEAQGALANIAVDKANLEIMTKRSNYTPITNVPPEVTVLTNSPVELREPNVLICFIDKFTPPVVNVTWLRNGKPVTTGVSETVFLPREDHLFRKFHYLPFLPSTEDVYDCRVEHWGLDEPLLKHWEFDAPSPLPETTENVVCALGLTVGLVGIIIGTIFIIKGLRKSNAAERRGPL
The target of a further test is HLA-DRB1*01:01 (Homo sapiens, UniProt P01903+P01911, A100R/D57E/F55L/F60I/F76Y/I96L/L162R/M171V/P40L/Q125E/R42F/V115G/Y59C). Kind of test: biochemical. It is filed as binding.
The next test deals with HLA-DRB1*15:01 (Homo sapiens, UniProt P01903+P01911). The experiment in a line: biochemical. The test is classed as binding.
The target of the next test is HLA-DRB1*11:01 (Homo sapiens, UniProt P01903+P01911, A100R/A169T/A87E/I96F/K41T/L162R/M171V/P40S/Q125H/Q178H/Q39Y/Q99D/R42S/S66Y/T262R/V115G/W38E). Kind of test: biochemical. The test is classed as binding.
HLA-DRB1*11:01, sequence (P01903 26-254 limits assumed, other chains not shown): as above
In the next test the target is HLA-DRB1*03:01 (Homo sapiens, UniProt P01903+P01911, A100K/A102G/A103R/A169T/F55Y/I96L/K41T/L162R/M171V/P40S/Q125H/Q178H/Q39Y/R42S/S66N/T106N/T262R/W38E/Y61H). The experiment in a line: biochemical. It is filed as binding.
HLA-DRB1*03:01, sequence (P01903 26-254, other chains not shown): as the sequence (P01903 26-254 limits assumed, other chains not shown) above
The target of another test is HLA-DRB1*04:05 (Homo sapiens, UniProt P01903+P01911, A100R/A169T/D86S/F76Y/I96L/K127E/L162R/M171V/N62H/P40V/Q125Y/R42H/S133A/S149N/S66Y/V115G/V209L/W38E). The experiment in a line: biochemical. The test is classed as binding.
The target in another test is HLA-DRB1*09:01 (Homo sapiens, UniProt P01903+P01911, A100R/A103E/D57H/D86V/F55Y/F60I/F76Y/I96F/K127E/L162R/M171V/P40D/Q125H/Q99R/R33Q/R42F/S133A/S66N/T210M/V115G/W38K/Y107V/Y59G/Y89S). The experiment in a line: biochemical. The test is classed as binding.
The next test addresses HLA-DRB1*08:02 (Homo sapiens, UniProt P01903+P01911, A100R/A103L/A169T/F76Y/H45Y/I96F/K41T/L162R/M171V/P40S/Q125H/Q178H/Q39Y/Q99D/R218S/R42G/S66Y/V115G/W38E). Kind of test: biochemical. The test is classed as binding.
The test system of another test is HLA-DPB1*04:02. The experiment in a line: In vitro HLA binding (data not shown). The arrangement: species or system human.
Another test has as its target T1, HLA-DPB1*04:01 (Homo sapiens, UniProt P04440+P20036).
T1 sequence (P04440 30-258): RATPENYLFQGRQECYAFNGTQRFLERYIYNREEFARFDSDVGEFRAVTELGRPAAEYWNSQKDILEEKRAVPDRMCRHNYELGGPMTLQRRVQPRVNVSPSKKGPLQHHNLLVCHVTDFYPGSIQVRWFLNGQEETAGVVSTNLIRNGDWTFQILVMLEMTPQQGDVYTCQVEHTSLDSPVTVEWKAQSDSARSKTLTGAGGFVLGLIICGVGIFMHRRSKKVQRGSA
T1 sequence (P20036 29-260): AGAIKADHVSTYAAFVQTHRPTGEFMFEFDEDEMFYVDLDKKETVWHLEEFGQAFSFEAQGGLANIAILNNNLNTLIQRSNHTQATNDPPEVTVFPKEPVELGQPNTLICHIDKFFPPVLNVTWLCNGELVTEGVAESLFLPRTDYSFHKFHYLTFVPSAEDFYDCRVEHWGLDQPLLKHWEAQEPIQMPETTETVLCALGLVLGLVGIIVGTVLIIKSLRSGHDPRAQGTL
The experiment in a line: In vitro HLA binding (data not shown).

In the next test the test system is CD4+ T cells. It is filed as cell-based, human.

Read-outs that look alike come from different tables or passages of the source.

As to `CC[C@H](C)[C@H](NC(=O)[C@H](CCCCN)NC(=O)[C@@H](N)Cc1ccccc1)C(=O)N[C@@H](Cc1ccc(O)cc1)C(=O)N[C@@H](CO)C(=O)N[C@@H](CCCCN)C(=O)N[C@@H](Cc1c[nH]cn1)C(=O)N[C@H](C(=O)N1CCC[C@H]1C(=O)N[C@H](C(=O)N[C@@H](CC(N)=O)C(=O)N[C@@H](CC(C)C)C(=O)N[C@H](C(=O)N[C@@H](CCCNC(=N)N)C(=O)N[C@@H](CC(=O)O)C(=O)O)C(C)C)[C@@H](C)CC)[C@@H](C)O` [peptide 41], the IC50 on HLA-DRB1*07:01 was found to be 2.7 nM; against HLA-DRB1*12:01, 7180 nM; at HLA-DRB1*04:01 it was 5250 nM; against HLA-DRB1*13:02 it was 9040 nM; against HLA-DRB1*01:01, 64 nM; against HLA-DRB1*15:01, 611 nM. In addition, the half-inhibitory concentration (IC50) at HLA-DRB1*11:01 was 229 nM; against HLA-DRB1*03:01, over 40000 nM; on HLA-DRB1*04:05, 16300 nM; against HLA-DRB1*09:01, 13 nM; on HLA-DRB1*08:02, 125 nM.

Take `CC(C)C[C@H](NC(=O)[C@H](C)NC(=O)[C@H](CC(C)C)NC(=O)[C@H](CC(C)C)NC(=O)[C@@H](NC(=O)[C@H](CCC(N)=O)NC(=O)[C@H](Cc1ccccc1)NC(=O)[C@H](CCCNC(=N)N)NC(=O)[C@@H](N)[C@@H](C)O)[C@@H](C)O)C(=O)N[C@@H](Cc1c[nH]cn1)C(=O)N[C@@H](CCCNC(=N)N)C(=O)N[C@@H](CO)C(=O)N[C@@H](Cc1ccc(O)cc1)C(=O)N[C@@H](CC(C)C)C(=O)N[C@H](C(=O)O)[C@@H](C)O` [peptide 48]: the concentration for half-maximal inhibition (IC50) at HLA-DRB1*07:01 worked out at 3.9 nM; on HLA-DRB1*12:01 it was 18 nM; at HLA-DRB1*04:01 it was 337 nM; against HLA-DRB1*13:02, 29900 nM; against HLA-DRB1*01:01, 38 nM; on HLA-DRB1*15:01, 5 nM. For the same compound, the IC50 on HLA-DRB1*11:01 was found to be 14 nM; on HLA-DRB1*03:01, 13800 nM; on HLA-DRB1*04:05, 794 nM; against HLA-DRB1*09:01, 11 nM; against HLA-DRB1*08:02 it was 177 nM.

For the compound `CC(C)C[C@H](NC(=O)[C@H](Cc1ccccc1)NC(=O)[C@@H]1CCCN1C(=O)[C@H](CC(=O)O)NC(=O)[C@H](CC(N)=O)NC(=O)[C@H](CS)NC(=O)[C@H](Cc1ccccc1)NC(=O)[C@H](CCC(N)=O)NC(=O)[C@H](Cc1ccccc1)NC(=O)[C@H](CCC(=O)O)NC(=O)[C@@H](N)CS)C(=O)NCC(=O)N[C@H](C(=O)N[C@@H](Cc1ccc(O)cc1)C(=O)N[C@@H](Cc1ccc(O)cc1)C(=O)O)C(C)C` [peptide 27], the “binding to HLA-DPB1*04:02” value in the test on HLA-DPB1*04:02 is “high affinity”. Besides, the IC50 at HLA-DRB1*15:01 (read-out: in vitro binding capacity (IC50), DRB1*15:01) came out at 7640 nM. For the same compound, the “binding to HLA-DPB1*04:01” value on HLA-DPB1*04:01 is given as “high affinity”. Moreover, the “responding patients, DRB1*01:01” value with CD4+ T cells (responders / study participants carrying DRB1*01:01, CD4+ IFN-γ response, peptide 10 μg mL−1, after 14 days expansion) was 4/6. Moreover, the “responding patients, DRB1*03:01” value in the test with CD4+ T cells (responders / study participants carrying DRB1*03:01, CD4+ IFN-γ response, peptide 10 μg mL−1, after 14 days expansion) was 2/3. In addition, the “responding patients, DRB1*04:01” value in the test with CD4+ T cells (responders / study participants carrying DRB1*04:01, CD4+ IFN-γ response, peptide 10 μg mL−1, after 14 days expansion) is given as 4/4. Moreover, in the test with CD4+ T cells (responders / study participants carrying DRB1*07:01, CD4+ IFN-γ response, peptide 10 μg mL−1, after 14 days expansion), the “responding patients, DRB1*07:01” value was 5/8. For the same compound, the “responding patients, DRB1*11:01” value in the test on CD4+ T cells (responders / study participants carrying DRB1*11:01, CD4+ IFN-γ response, peptide 10 μg mL−1, after 14 days expansion) is listed as 3/3. Moreover, the “responding patients, DRB1*12:01” value with CD4+ T cells (responders / study participants carrying DRB1*12:01, CD4+ IFN-γ response, peptide 10 μg mL−1, after 14 days expansion) is 0/1. The “responding patients, DRB1*15:01” value in the test with CD4+ T cells (responders / study participants carrying DRB1*15:01, CD4+ IFN-γ response, peptide 10 μg mL−1, after 14 days expansion) is listed as 3/7. Moreover, in the test on CD4+ T cells (share of the 35 participants with a CD4+ IFN-γ response to the peptide), the “response frequency (RF) / recognition rate of CD4+ T-cell response” value is 64%.

Regarding `CC(C)[C@H](N)C(=O)N[C@@H](Cc1ccccc1)C(=O)N[C@@H](CC(N)=O)C(=O)N[C@@H](C)C(=O)N[C@H](C(=O)N[C@@H](CCCNC(=N)N)C(=O)N[C@@H](Cc1ccccc1)C(=O)N[C@@H](C)C(=O)N[C@@H](CO)C(=O)N[C@H](C(=O)N[C@@H](Cc1ccc(O)cc1)C(=O)N[C@@H](C)C(=O)N[C@@H](Cc1c[nH]c2ccccc12)C(=O)N[C@@H](CC(N)=O)C(=O)N[C@@H](CCCNC(=N)N)C(=O)O)C(C)C)[C@@H](C)O` [peptide 69], the IC50 at HLA-DRB1*07:01 was 2.7 nM; against HLA-DRB1*12:01, 500 nM; against HLA-DRB1*04:01 it was 853 nM; against HLA-DRB1*13:02, over 40000 nM; on HLA-DRB1*01:01 (read-out: in vitro binding capacity (IC50), DRB1*01:01) it was 1030 nM; at HLA-DRB1*15:01, 12 nM. Besides, the concentration for half-maximal inhibition (IC50) against HLA-DRB1*11:01 was 372 nM; against HLA-DRB1*03:01, over 40000 nM; at HLA-DRB1*04:05 it was 976 nM; at HLA-DRB1*09:01, 321 nM; against HLA-DRB1*08:02 it was 3710 nM.

`CC(C)C[C@H](NC(=O)[C@H](CCCNC(=N)N)NC(=O)[C@H](Cc1ccc(O)cc1)NC(=O)[C@H](CC(C)C)NC(=O)[C@@H](N)Cc1ccc(O)cc1)C(=O)N[C@@H](Cc1ccccc1)C(=O)N[C@@H](CCCNC(=N)N)C(=O)N[C@@H](CCCCN)C(=O)N[C@@H](CO)C(=O)N[C@@H](CC(N)=O)C(=O)N[C@@H](CC(C)C)C(=O)N[C@@H](CCCCN)C(=O)N1CCC[C@H]1C(=O)N[C@@H](Cc1ccccc1)C(=O)N[C@@H](CCC(=O)O)C(=O)O` [peptide 91]: the IC50 was 575 nM against HLA-DRB1*07:01; 323 nM at HLA-DRB1*12:01; 590 nM against HLA-DRB1*04:01; 8570 nM against HLA-DRB1*13:02; 7360 nM against HLA-DRB1*01:01; 1.7 nM on HLA-DRB1*15:01. Besides, the 50% inhibitory concentration (IC50) on HLA-DRB1*11:01 is 4.2 nM; against HLA-DRB1*03:01, over 40000 nM; at HLA-DRB1*04:05, 543 nM; at HLA-DRB1*09:01, 13 nM; against HLA-DRB1*08:02, 23 nM.

For orientation: IC50 means the concentration needed to halve the response being measured.
